Results as given in patent publication US10172355B2, “Safened herbicidal compositions including 4-amino-3-chloro-5-fluoro-6-(4-chloro-2-fluoro-3-methoxyphenyl)pyridine-2-carboxylic acid or a derivative thereof for use in rice” (Dow AgroSciences LLC, priority 2012, dated 2019).
Like-named read-outs stand apart in the source and are kept apart here.

Key:
ORYSA=Orysa sativa, Rice = assay: Postemergence foliar-applied herbicides and safeners in direct-seeded rice, visual injury; format: in vivo; conditions: foliar, foliar; for Visual crop injury (%) at 140 g/ha / Visual crop injury (%) at 280 g/ha: Oryza sativa, 480 h, read-out: Visual Injury (%) - 20 DAA ORYSA-‘Clearfield 171’ Obs; for Visual Injury (%) - 21 DAA ORYSA-‘Clearfield 171’ Obs / Visual Injury (%) - 21 DAA ORYSA-‘Neptune’ Obs / Visual Injury (%) - 21 DAA ORYSA-‘Wells’ Obs: Tables 1,2,7,8
Source text: (§1) Seeds or nutlets of the desired test plant species were planted in a soil matrix prepared by mixing a loam or sandy loam soil (e.g., 28.6 percent silt, 18.8 percent clay, and 52.6 percent sand, with a pH of about 5.8 and an organic matter content of about 1.8 percent) and calcareous grit in an 80 to 20 ratio. The soil matrix was contained in plastic pots with a surface area of 84.6 square centimeters (cm^2). When required to ensure good germination and healthy plants, a fungicide treatment and/or other chemical or physical treatment was applied. The plants were grown for 8-22 days in a greenhouse with an approximate 14 hr photoperiod which was maintained at about 29° C. during the day and 26° C. during the night. Nutrients (Peters Excel 15-5-15 5-Ca 2-Mg and iron chelate) were applied in the irrigation solution as needed and water was added on a regular basis. Supplemental lighting was provided with overhead metal halide 1000-Watt lamps as necessary. The plants were employed for testing when they reached the second or third true leaf stage.
(§2) Treatments consisted of the acid or esters of 4-amino-3-chloro-5-fluoro-6-(4-chloro-2-fluoro-3-methoxy-phenyl)pyridine-2-carboxylic acid (compound A) and various safener components alone and in combination. Forms of compound A were applied on an acid equivalent basis. Safener components were applied on an active ingredient or acid equivalent basis depending on the compound.
(§3) Treatment requirements were calculated based upon the rates being tested, the concentration of active ingredient or acid equivalent in the formulation, and a 12 mL application volume at a rate of 187 L/ha.
(§4) For treatments comprised of formulated compounds, measured amounts of compounds were placed individually in 25 mL glass vials and diluted in a volume of 1.25% (v/v) Agri-dex crop oil concentrated to obtain 12× stock solutions. […] Application solutions were prepared by adding an appropriate amount of each stock solution (e.g., 1 mL) and diluted to the appropriate final concentrations with the addition of 10 mL of an aqueous mixture of 1.25% (v/v) Agri-dex crop oil concentrate so that the final spray solutions contained 1.25% (v/v) Agri-dex crop oil concentrate.
(§5) For treatments comprised of technical compounds, weighed amounts were placed individually in 25 mL glass vials and dissolved in a volume of 97:3 v/v acetone/DMSO to obtain 12× stock solutions. […] Application solutions were prepared by adding an appropriate amount of each stock solution (e.g., 1 mL) and diluted to the appropriate final concentrations with the addition of 10 mL of an aqueous mixture of 1.5% (v/v) Agri-dex crop oil concentrate so that the final spray solutions contained 1.25% (v/v) Agri-dex crop oil concentrate. When technical materials were used, the concentrated stock solutions were added to the spray solutions so that the final acetone and DMSO concentrations of the application solutions were […], respectively.
(§6) For treatments comprised of formulated and technical compounds, weighed amounts of the technical materials were placed individually in 25 mL glass vials and dissolved in a volume of 97:3 v/v acetone/DMSO to obtain 12× stock solutions, and measured amounts of the formulated compounds were placed individually in 25 mL glass vials and diluted in a volume of 1.5% (v/v) Agri-dex crop oil concentrate or water to obtain 12× stock solutions. […] Application solutions were prepared by adding an appropriate amount of each stock solution (e.g., 1 mL) and diluted to the appropriate final concentrations with the addition of an appropriate amount of an aqueous mixture of 1.5% (v/v) Agri-dex crop oil concentrate so that the final spray solutions contained 1.25% (v/v) Agri-dex crop oil concentrate. When required, additional water and/or 97:3 v/v acetone/DMSO was added to individual application solutions so that the final acetone and DMSO concentrations of the application solutions being compared were 8.1% and 0.25%, respectively. […]

[1] = tested on: ECHCG=Echinochloa crus-galli; assay: Postemergence foliar-applied herbicides and safeners, visual injury of weed; format: in vivo; conditions: foliar; for pest or weed control at 140 g/ha / pest or weed control at 280 g/ha: Echinochloa crus-galli, 480 h, read-out: Visual Injury (%) - 20 DAA ECHCG Obs
Source text: as §1, §2, §3, §4, §5, §6

[2] = safener 140 g ai/ha alone, trial of Tables 3,4,6,10,12,14
[3] = safener 140 g ai/ha alone, trial of Tables 5,9,11,13
[4] = safener 280 g ai/ha alone, trial of Tables 3,4,6,10,12,14
[5] = safener 280 g ai/ha alone, trial of Tables 5,9,11,13

In the case of `Clc1cc(Cl)nc(-c2ccccc2)n1` [Fenclorim, 4,6-dichloro-2-phenylpyrimidine, reference compound], the Visual crop injury (%) at 140 g/ha (ORYSA=Orysa sativa, Rice; [2]) was 0%, the Visual crop injury (%) at 140 g/ha (ORYSA=Orysa sativa, Rice; [3]) was 0% and the Visual crop injury (%) at 280 g/ha (ORYSA=Orysa sativa, Rice; [4]) was 0%. The Visual crop injury (%) at 280 g/ha (ORYSA=Orysa sativa, Rice; [5]) was 0%, the pest or weed control at 140 g/ha [1, 3] was 0% and the pest or weed control at 280 g/ha [1, 5] was 0%. For the same molecule, the “Visual Injury (%) - 20 DAA ECHCG Obs” value [1, 2] was 0% and the “Visual Injury (%) - 20 DAA ECHCG Obs” value [1, 4] was 0%.
For `CC1(C)OC(c2ccco2)CN1C(=O)C(Cl)Cl` (centres unmarked) [Furilazole, 3-(dichloroacetyl)-5-(2-furanyl)-2,2-dimethyl-oxazolidine, reference compound], the Visual crop injury (%) at 140 g/ha (ORYSA=Orysa sativa, Rice; [2]) was 7%, the Visual crop injury (%) at 140 g/ha (ORYSA=Orysa sativa, Rice; [3]) was 0% and the Visual crop injury (%) at 280 g/ha (ORYSA=Orysa sativa, Rice; [4]) was 18%. The Visual crop injury (%) at 280 g/ha (ORYSA=Orysa sativa, Rice; [5]) was 0%, the pest or weed control at 140 g/ha [1, 3] was 0% and the pest or weed control at 280 g/ha [1, 5] was 0%. For the same molecule, the “Visual Injury (%) - 20 DAA ECHCG Obs” value [1, 2] was 0% and the “Visual Injury (%) - 20 DAA ECHCG Obs” value [1, 4] was 0%.
Work on `CC(C)(SC(=O)N1CCCCC1)c1ccccc1` [Dimepiperate, S-(1-methyl-1-phenylethyl)1-piperidine-carbothioate, reference compound] yielded a Visual crop injury (%) at 140 g/ha (ORYSA=Orysa sativa, Rice; [2]) of 7%, a Visual crop injury (%) at 280 g/ha (ORYSA=Orysa sativa, Rice; [4]) of 3% and a pest or weed control at 140 g/ha [1, 2] of 0%. The pest or weed control at 280 g/ha [1, 4] was 0%.
With `O=C1OC(=O)c2cccc3cccc1c23` [Naphthalic anhydride, 1H,3H-naphtho[1,8-cd]pyran-1,3-dione, reference compound] the Visual crop injury (%) at 140 g/ha (ORYSA=Orysa sativa, Rice; [2]) was 0%, the Visual crop injury (%) at 140 g/ha (ORYSA=Orysa sativa, Rice; [3]) was 0% and the Visual crop injury (%) at 280 g/ha (ORYSA=Orysa sativa, Rice; [4]) was 0%. It also gave a Visual crop injury (%) at 280 g/ha (ORYSA=Orysa sativa, Rice; [5]) of 3%, a pest or weed control at 140 g/ha [1, 3] of 0% and a pest or weed control at 280 g/ha [1, 5] of 0%. For the same molecule, the “Visual Injury (%) - 20 DAA ECHCG Obs” value [1, 2] was 0% and the “Visual Injury (%) - 20 DAA ECHCG Obs” value [1, 4] was 0%.
In the case of `CCCCCC(C)OC(=O)COc1ccc(Cl)c2cccnc12` (centres unmarked) [Cloquintocet-mexyl], the “Visual Injury (%) - 21 DAA ORYSA-‘Clearfield 171’ Obs” value (ORYSA=Orysa sativa, Rice; safener 70 g ai/ha alone) was 0%, the “Visual Injury (%) - 21 DAA ORYSA-‘Neptune’ Obs” value (ORYSA=Orysa sativa, Rice; safener 70 g ai/ha alone) was 0% and the “Visual Injury (%) - 21 DAA ORYSA-‘Wells’ Obs” value (ORYSA=Orysa sativa, Rice; safener 70 g ai/ha alone) was 0%. The “Visual Injury (%) - 21 DAA ORYSA-‘Clearfield 171’ Obs” value (ORYSA=Orysa sativa, Rice; safener 140 g ai/ha alone) was 0%, the “Visual Injury (%) - 21 DAA ORYSA-‘Neptune’ Obs” value (ORYSA=Orysa sativa, Rice; safener 140 g ai/ha alone) was 0% and the “Visual Injury (%) - 21 DAA ORYSA-‘Wells’ Obs” value (ORYSA=Orysa sativa, Rice; safener 140 g ai/ha alone) was 0%. The “Visual Injury (%) - 21 DAA ORYSA-‘Neptune’ Obs” value (ORYSA=Orysa sativa, Rice; safener 280 g ai/ha alone) was 0% and the “Visual Injury (%) - 21 DAA ORYSA-‘Wells’ Obs” value (ORYSA=Orysa sativa, Rice; safener 280 g ai/ha alone) was 0%.
In the case of `C=CCN(CC=C)C(=O)C(Cl)Cl` [Dichlormid, N,N-diallyl-2,2-dichloroacetamide], the Visual crop injury (%) at 140 g/ha (ORYSA=Orysa sativa, Rice; [2]) was 0%, the Visual crop injury (%) at 280 g/ha (ORYSA=Orysa sativa, Rice; [4]) was 0% and the pest or weed control at 280 g/ha [1, 4] was 0%.
`Cc1ccc(NC(=O)NC(C)(C)c2ccccc2)cc1` [Daimuron, N-(4-methylphenyl)-N′-(1-methyl-1-phenylethyl)-urea] was tested, and the “Visual Injury (%) - 21 DAA ORYSA-‘Clearfield 171’ Obs” value (ORYSA=Orysa sativa, Rice; safener 70 g ai/ha alone) was 0%, the “Visual Injury (%) - 21 DAA ORYSA-‘Neptune’ Obs” value (ORYSA=Orysa sativa, Rice; safener 70 g ai/ha alone) was 0% and the “Visual Injury (%) - 21 DAA ORYSA-‘Wells’ Obs” value (ORYSA=Orysa sativa, Rice; safener 70 g ai/ha alone) was 0%. For the same molecule, the “Visual Injury (%) - 21 DAA ORYSA-‘Clearfield 171’ Obs” value (ORYSA=Orysa sativa, Rice; safener 140 g ai/ha alone) was 0%, the “Visual Injury (%) - 21 DAA ORYSA-‘Neptune’ Obs” value (ORYSA=Orysa sativa, Rice; safener 140 g ai/ha alone) was 0% and the “Visual Injury (%) - 21 DAA ORYSA-‘Wells’ Obs” value (ORYSA=Orysa sativa, Rice; safener 140 g ai/ha alone) was 0%. The “Visual Injury (%) - 21 DAA ORYSA-‘Neptune’ Obs” value (ORYSA=Orysa sativa, Rice; safener 280 g ai/ha alone) was 0% and the “Visual Injury (%) - 21 DAA ORYSA-‘Wells’ Obs” value (ORYSA=Orysa sativa, Rice; safener 280 g ai/ha alone) was 0%.
`CC1(C)CN2C(=O)CCC2(C)N(C(=O)C(Cl)Cl)C1` (centres unmarked) [Dicyclonon] was tested, and the “Visual Injury (%) - 20 DAA ORYSA-‘Clearfield 171’ Obs” value (ORYSA=Orysa sativa, Rice; [2]) was 0%, the “Visual Injury (%) - 20 DAA ORYSA-‘Clearfield 171’ Obs” value (ORYSA=Orysa sativa, Rice; [3]) was 0% and the “Visual Injury (%) - 20 DAA ORYSA-‘Clearfield 171’ Obs” value (ORYSA=Orysa sativa, Rice; [4]) was 3%. The “Visual Injury (%) - 20 DAA ORYSA-‘Clearfield 171’ Obs” value (ORYSA=Orysa sativa, Rice; [5]) was 0%, the “Visual Injury (%) - 20 DAA ECHCG Obs” value [1, 4] was 0% and the “Visual Injury (%) - 20 DAA ECHCG Obs” value [1, 5] was 3%.
